From PubChem BioAssay AID2060893 (Molecular Pharmacology Branch, DTP, NCI, 2025)

System: K86415-001-R-J1-PDC complex spheroids, viability
Assay: Anticancer human tumor K86415-001-R-J1-PDC patient-derived lung adenocarcinoma cell line growth inhibition [RAS]
Details: for IC50: curve of first compound; for viability, T/C: stronger effect = lower value
Procedure, shortened: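 Tumour cells grown as complex spheroids with HUVEC endothelial cells and mesenchymal stem cells, treated with RAS pathway inhibitor combinations. Each agent spans half-log steps from near clinical Cmax, or 10 microM where Cmax is unknown.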
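Further: spheroids exposed to agents for seven days before readout.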

- IC50 (second compound 0.000949 µM): < 0.949 nM
- IC50 (second compound 0.003 µM): < 0.949 nM
- IC50 (second compound 0.00949 µM): < 0.949 nM
- IC50 (second compound 0.03 µM): < 0.949 nM
- IC50 (second compound 0.0949 µM): < 0.949 nM
- IC50 (second compound 0.3 µM): < 0.949 nM
SMILES: CCc1c2c(nc3ccc(O)cc13)-c1cc3c(c(=O)n1C2)COC(=O)[C@]3(O)CC + CCn1c(-c2cccnc2C(C)OC)c2c3cc(ccc31)N1CCOC(CC(NC(=O)C(C(C)C)N(C)C(=O)C3(F)CCN(C(=O)C#CC(C)(C)N(C)C)CC3)C(=O)N3CCCC(N3)C(=O)OCC(C)(C)C2)C1
- viability, T/C (second compound 0.000949 µM, first compound 0.000949 µM): 36.7%
- viability, T/C (second compound 0.000949 µM, first compound 0.003 µM): 25.1%
- viability, T/C (second compound 0.000949 µM, first compound 0.00949 µM): 10.1%
- viability, T/C (second compound 0.000949 µM, first compound 0.03 µM): 12.2%
- viability, T/C (second compound 0.000949 µM, first compound 0.0949 µM): 9.29%
- viability, T/C (second compound 0.000949 µM, first compound 0.3 µM): 3.47%
- viability, T/C (second compound 0.003 µM, first compound 0.000949 µM): 11.9%
- viability, T/C (second compound 0.003 µM, first compound 0.003 µM): 13.2%
- viability, T/C (second compound 0.003 µM, first compound 0.00949 µM): 9.42%
- viability, T/C (second compound 0.003 µM, first compound 0.03 µM): 10.6%
- viability, T/C (second compound 0.003 µM, first compound 0.0949 µM): 6.9%
- viability, T/C (second compound 0.003 µM, first compound 0.3 µM): 2.68%
- viability, T/C (second compound 0.00949 µM, first compound 0.000949 µM): 11.8%
- viability, T/C (second compound 0.00949 µM, first compound 0.003 µM): 10.5%
- viability, T/C (second compound 0.00949 µM, first compound 0.00949 µM): 10.8%
- viability, T/C (second compound 0.00949 µM, first compound 0.03 µM): 9.69%
- viability, T/C (second compound 0.00949 µM, first compound 0.0949 µM): 7.47%
- viability, T/C (second compound 0.00949 µM, first compound 0.3 µM): 3.83%
- viability, T/C (second compound 0.03 µM, first compound 0.000949 µM): 10.7%
- viability, T/C (second compound 0.03 µM, first compound 0.003 µM): 11.6%
- viability, T/C (second compound 0.03 µM, first compound 0.00949 µM): 8.61%
- viability, T/C (second compound 0.03 µM, first compound 0.03 µM): 10.2%
- viability, T/C (second compound 0.03 µM, first compound 0.0949 µM): 6.38%
- viability, T/C (second compound 0.03 µM, first compound 0.3 µM): 2.86%
- viability, T/C (second compound 0.0949 µM, first compound 0.000949 µM): 10.8%
- viability, T/C (second compound 0.0949 µM, first compound 0.003 µM): 9.6%
- viability, T/C (second compound 0.0949 µM, first compound 0.00949 µM): 10.9%
- viability, T/C (second compound 0.0949 µM, first compound 0.03 µM): 9.82%
- viability, T/C (second compound 0.0949 µM, first compound 0.0949 µM): 3.93%
- viability, T/C (second compound 0.0949 µM, first compound 0.3 µM): 2.05%
- viability, T/C (second compound 0.3 µM, first compound 0.000949 µM): 13.9%
- viability, T/C (second compound 0.3 µM, first compound 0.003 µM): 9.91%
- viability, T/C (second compound 0.3 µM, first compound 0.00949 µM): 7.1%
- viability, T/C (second compound 0.3 µM, first compound 0.03 µM): 6.45%
- viability, T/C (second compound 0.3 µM, first compound 0.0949 µM): 3.04%
- viability, T/C (second compound 0.3 µM, first compound 0.3 µM): 2.24%
